# Reference: patent US6737383B1, “Herbicidal oxadiazolidines” (priority 1999, dated 2004)
# Tests used:
# [1] = tested on: blackgrass; test: Test B pre/postemergence blackgrass; type: in vivo, Alopecurus myosuroides; settings: for Blackgrass plant response rating: scale of 0 to 10 where 0 is no effect and 10 is complete control
# How it was run: (§1)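 Herbicidal effect was estimated by eye on a ten-point control scale after plants spent twelve to sixteen days in a greenhouse following soil or foliar treatment. Foliar sprays targeted plants at one to four leaves; all doses were formulated in a non-phytotoxic solvent with surfactant.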
# [2] = tested on: surinam grass; test: Test B pre/postemergence surinam grass; type: in vivo, Brachiaria decumbens; settings: for B. signalgrass plant response rating: scale of 0 to 10 where 0 is no effect and 10 is complete control
# How it was run: as §1
# [3] = tested on: corn; test: Test B pre/postemergence corn; type: in vivo, Zea mays; settings: for Corn plant response rating: scale of 0 to 10 where 0 is no effect and 10 is complete control
# How it was run: as §1
# [4] = tested on: crabgrass; test: Test B pre/postemergence crabgrass; type: in vivo, Digitaria sanguinalis; settings: for Crabgrass plant response rating: scale of 0 to 10 where 0 is no effect and 10 is complete control
# How it was run: as §1
# [5] = tested on: giant foxtail; test: Test B pre/postemergence giant foxtail; type: in vivo, Setaria faberii; settings: for Giant foxtail plant response rating: scale of 0 to 10 where 0 is no effect and 10 is complete control
# How it was run: as §1
# [6] = tested on: morningglory; test: Test B pre/postemergence morningglory; type: in vivo, Ipomoea hederacea; settings: for Morningglory plant response rating: scale of 0 to 10 where 0 is no effect and 10 is complete control
# How it was run: as §1
# [7] = tested on: rape; test: Test B pre/postemergence rape; type: in vivo, Brassica napus; settings: for Rape plant response rating: scale of 0 to 10 where 0 is no effect and 10 is complete control
# How it was run: as §1
# [8] = tested on: soybean; test: Test B pre/postemergence soybean; type: in vivo, Glycine max; settings: for Soybean plant response rating: scale of 0 to 10 where 0 is no effect and 10 is complete control
# How it was run: as §1
# [9] = tested on: velvetleaf; test: Test B pre/postemergence velvetleaf; type: in vivo, Abutilon theophrasti; settings: for Velvetleaf plant response rating: scale of 0 to 10 where 0 is no effect and 10 is complete control
# How it was run: as §1
# [10] = tested on: wheat; test: Test B pre/postemergence wheat; type: in vivo, Triticum aestivum; settings: for Wheat plant response rating: scale of 0 to 10 where 0 is no effect and 10 is complete control
# How it was run: as §1
# [11] = tested on: wild oat; test: Test B pre/postemergence wild oat; type: in vivo, Avena fatua; settings: for Wild oats plant response rating: scale of 0 to 10 where 0 is no effect and 10 is complete control
# How it was run: as §1
# [12] = tested on: purple nutsedge; test: Test B pre/postemergence purple nutsedge; type: in vivo, Cyperus rotundus; settings: for Nutsedge plant response rating: scale of 0 to 10 where 0 is no effect and 10 is complete control
# How it was run: as §1
# [13] = tested on: rice; test: Test B flood test rice; type: in vivo, Oryza sativa
# How it was run: (§2)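 Read-out is a visual response score from 0 (no effect) to 10 (complete control), assigned by comparison with untreated controls. Treatment was applied at the 2-leaf stage, and plants stayed in the greenhouse for twelve to sixteen days before scoring.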
# [14] = tested on: smallflower flatsedge; test: Test B flood test smallflower flatsedge; type: in vivo, Cyperus difformis
# How it was run: as §2
# [15] = tested on: duck salad; test: Test B flood test duck salad; type: in vivo, Heteranthera limosa
# How it was run: as §2
# [16] = Postemergence, Rate 125 g/ha, scale 0 to 10, 0 is no effect, 10 is complete control
# [17] = Postemergence, Rate 250 g/ha, scale 0 to 10, 0 is no effect, 10 is complete control
# [18] = Preemergence, Rate 62 g/ha, scale 0 to 10 (0 no effect, 10 complete control)
# [19] = Rate 500 g/ha, Postemergence, scale 0 to 10, 0 no effect, 10 complete control
# [20] = Rate 62 g/ha, flood test species, Pre-emergence, visual evaluation after twelve to sixteen days
# [21] = Rate 125 g/ha, under heading Pre-emergence, flood test species, visual evaluation after twelve to sixteen days
# [22] = Rate 250 g/ha, Pre-emergence, flood-test species, scale 0 to 10, 0 is no effect, 10 is complete control
# [23] = Rate 500 g/ha, Pre-emergence, flood test species, scale 0 to 10 (0 no effect, 10 complete control)
smiles,measurement,setting,value
CC1CC1n1c(=O)on(C(=O)N(c2ccc(F)cc2)C(C)C)c1=O (centres unmarked) [Compound 371],"Plant response rating, Blackgrass",[1]; [16],2
same,"Plant response rating, Blackgrass",[1]; [17],6
same,"Plant response rating, Blackgrass",[1]; [18],5
same,Blackgrass plant response rating (0 to 10 scale),"[1]; Preemergence, Rate 125 g/ha",9
same,Blackgrass plant response rating,"[1]; Preemergence, Rate 250 g/ha",10
same,Blackgrass plant response rating,"[1]; Preemergence, Rate 500 g/ha",10
same,Blackgrass plant response rating,"[1]; Rate 62 g/ha, Postemergence",2
same,"Plant response rating, Blackgrass",[1]; [19],8
same,"Plant response rating, B. signalgrass",[2]; [16],0
same,"Plant response rating, B. signalgrass",[2]; [17],3
same,"Plant response rating, B. signalgrass",[2]; [18],0
same,"B. signalgrass plant response rating (0 to 10 scale, 0 is no effect, 10 is complete control)","[2]; Preemergence, Rate 125 g/ha",2
same,B. signalgrass plant response rating,"[2]; Preemergence, Rate 250 g/ha",2
same,B. signalgrass plant response rating,"[2]; Preemergence, Rate 500 g/ha",4
same,B. signalgrass plant response rating,"[2]; Rate 62 g/ha, Postemergence",0
same,"Plant response rating, B. signalgrass",[2]; [19],6
same,"Plant response rating, Corn",[3]; [16],0
same,"Plant response rating, Corn",[3]; [17],0
same,"Plant response rating, Corn",[3]; [18],0
same,Corn plant response rating (0 to 10 scale),"[3]; Preemergence, Rate 125 g/ha",0
same,Corn plant response rating,"[3]; Preemergence, Rate 250 g/ha",2
same,Corn plant response rating,"[3]; Preemergence, Rate 500 g/ha",7
same,Corn plant response rating,"[3]; Rate 62 g/ha, Postemergence",0
same,"Plant response rating, Corn",[3]; [19],1
same,"Plant response rating, Crabgrass",[4]; [16],4
same,"Plant response rating, Crabgrass",[4]; [17],8
same,"Plant response rating, Crabgrass",[4]; [18],8
same,Crabgrass plant response rating (0 to 10 scale),"[4]; Preemergence, Rate 125 g/ha",10
same,Crabgrass plant response rating,"[4]; Preemergence, Rate 250 g/ha",10
same,Crabgrass plant response rating,"[4]; Preemergence, Rate 500 g/ha",10
same,Crabgrass plant response rating,"[4]; Rate 62 g/ha, Postemergence",3
same,"Plant response rating, Crabgrass",[4]; [19],9
same,"Plant response rating, Giant foxtail",[5]; [16],7
same,"Plant response rating, Giant foxtail",[5]; [17],8
same,"Plant response rating, Giant foxtail",[5]; [18],10
same,Giant foxtail plant response rating (0 to 10 scale),"[5]; Preemergence, Rate 125 g/ha",10
same,Giant foxtail plant response rating,"[5]; Preemergence, Rate 250 g/ha",10
same,Giant foxtail plant response rating,"[5]; Preemergence, Rate 500 g/ha",10
same,Giant foxtail plant response rating,"[5]; Rate 62 g/ha, Postemergence",5
same,"Plant response rating, Giant foxtail",[5]; [19],9
same,"Plant response rating, Morningglory",[6]; [16],7
same,"Plant response rating, Morningglory",[6]; [17],7
same,"Plant response rating, Morningglory",[6]; [18],0
same,Morningglory plant response rating (0 to 10 scale),"[6]; Preemergence, Rate 125 g/ha",0
same,Morningglory plant response rating,"[6]; Preemergence, Rate 250 g/ha",0
same,Morningglory plant response rating,"[6]; Preemergence, Rate 500 g/ha",3
same,Morningglory plant response rating,"[6]; Rate 62 g/ha, Postemergence",7
same,"Plant response rating, Morningglory",[6]; [19],10
same,"Plant response rating, Rape",[7]; [16],0
same,"Plant response rating, Rape",[7]; [17],0
same,"Plant response rating, Rape",[7]; [18],0
same,Rape plant response rating (0 to 10 scale),"[7]; Preemergence, Rate 125 g/ha",4
same,Rape plant response rating,"[7]; Preemergence, Rate 250 g/ha",9
same,Rape plant response rating,"[7]; Preemergence, Rate 500 g/ha",10
same,Rape plant response rating,"[7]; Rate 62 g/ha, Postemergence",0
same,"Plant response rating, Rape",[7]; [19],0
same,"Plant response rating, Soybean",[8]; [16],1
same,"Plant response rating, Soybean",[8]; [17],1
same,"Plant response rating, Soybean",[8]; [18],0
same,Soybean plant response rating (0 to 10 scale),"[8]; Preemergence, Rate 125 g/ha",0
same,Soybean plant response rating,"[8]; Preemergence, Rate 250 g/ha",0
same,Soybean plant response rating,"[8]; Preemergence, Rate 500 g/ha",2
same,Soybean plant response rating,"[8]; Rate 62 g/ha, Postemergence",1
same,"Plant response rating, Soybean",[8]; [19],4
same,"Plant response rating, Velvetleaf",[9]; [16],0
same,"Plant response rating, Velvetleaf",[9]; [17],2
same,"Plant response rating, Velvetleaf",[9]; [18],0
same,Velvetleaf plant response rating (0 to 10 scale),"[9]; Preemergence, Rate 125 g/ha",4
same,Velvetleaf plant response rating,"[9]; Preemergence, Rate 250 g/ha",5
same,Velvetleaf plant response rating,"[9]; Preemergence, Rate 500 g/ha",6
same,Velvetleaf plant response rating,"[9]; Rate 62 g/ha, Postemergence",0
same,"Plant response rating, Velvetleaf",[9]; [19],3
same,"Plant response rating, Wheat",[10]; [16],0
same,"Plant response rating, Wheat",[10]; [17],0
same,"Plant response rating, Wheat",[10]; [18],0
same,Wheat plant response rating (0 to 10 scale),"[10]; Preemergence, Rate 125 g/ha",0
same,Wheat plant response rating,"[10]; Preemergence, Rate 250 g/ha",2
same,Wheat plant response rating,"[10]; Preemergence, Rate 500 g/ha",4
same,Wheat plant response rating,"[10]; Rate 62 g/ha, Postemergence",0
same,"Plant response rating, Wild oats",[11]; [16],0
same,"Plant response rating, Wild oats",[11]; [17],3
same,"Plant response rating, Wild oats",[11]; [18],0
same,Wild oats plant response rating (0 to 10 scale),"[11]; Preemergence, Rate 125 g/ha",3
same,Wild oats plant response rating,"[11]; Preemergence, Rate 250 g/ha",3
same,Wild oats plant response rating,"[11]; Preemergence, Rate 500 g/ha",6
same,Wild oats plant response rating,"[11]; Rate 62 g/ha, Postemergence",0
same,"Plant response rating, Wild oats",[11]; [19],4
same,"Plant response rating, Nutsedge",[12]; [16],0
same,"Plant response rating, Nutsedge",[12]; [17],0
same,"Plant response rating, Nutsedge",[12]; [18],0
same,Nutsedge plant response rating (0 to 10 scale),"[12]; Preemergence, Rate 125 g/ha",0
same,Nutsedge plant response rating,"[12]; Preemergence, Rate 250 g/ha",5
same,Nutsedge plant response rating,"[12]; Preemergence, Rate 500 g/ha",9
same,Nutsedge plant response rating,"[12]; Rate 62 g/ha, Postemergence",0
same,"Plant response rating, Nutsedge",[12]; [19],0
same,"Plant response rating, Rice (0 to 10 scale, 0 is no effect, 10 is complete control)",[13]; [20],0
same,"Rice plant response rating (0 to 10 scale, 0 is no effect, 10 is complete control)",[13]; [21],0
same,Rice plant response rating,[13]; [22],0
same,Rice plant response rating,[13]; [23],5
same,"Plant response rating, S. Flatsedge (0 to 10 scale, 0 is no effect, 10 is complete control)",[14]; [20],0
same,"S. Flatsedge plant response rating (0 to 10 scale, 0 is no effect, 10 is complete control)",[14]; [21],0
same,S. Flatsedge plant response rating,[14]; [22],0
same,S. Flatsedge plant response rating,[14]; [23],3
same,"Plant response rating, Ducksalad (0 to 10 scale, 0 is no effect, 10 is complete control)",[15]; [20],0
same,"Ducksalad plant response rating (0 to 10 scale, 0 is no effect, 10 is complete control)",[15]; [21],0
same,Ducksalad plant response rating,[15]; [22],0
same,Ducksalad plant response rating,[15]; [23],2
